What was measured:
[1] = test system: HCMV AD169 clone with mutation in UL86 D563N; experiment: Susceptibility (IC50) of resistant HCMV AD169 clone D563N; type: cell-based, Human cytomegalovirus; conditions: Human betaherpesvirus 5, read-out: IC 50, D563N
Procedure: (§1) The test compounds are employed as 50 millimolar (mM) solutions in dimethyl sulfoxide (DMSO). Ganciclovir®, Foscarnet® and Cidofovir® are used as reference compounds. After addition of in each case 2 μl of the 50, 5, 0.5 and 0.05 mM DMSO stock solutions to 98 μl portions of cell culture medium in row 2 A-H for duplicate determinations, 1:2 dilutions are carried out with 50 μl portions of medium up to row 11 of the 96-well plate. The wells in rows 1 and 12 each contain 50 μl of medium. 150 μl of a suspension of 1×10^4 cells (human prepuce fibroblasts [NHDF]) are then pipetted into each of the wells (row 1=cell control) and, in rows 2-12, a mixture of HCMV-infected and uninfected NHDF cells (M.O.I.=0.001-0.002), i.e. 1-2 infected cells per 1000 uninfected cells. Row 12 (without substance) serves as virus control. The final test concentrations are 250-0.0005 μM. The plates are incubated at 37° C./5% CO2 for 6 days, i.e. until all the cells are infected in the virus controls (100% cytopathogenic effect [CPE]). The wells are then fixed and stained by adding a mixture of formalin and Giemsa's dye (30 minutes), washed with double-distilled water and dried in a drying oven at 50° C. The plates are then assessed visually using an overhead microscope (plaque multiplier from Technomara).
(§2) For this purpose, NHDF cells are seeded in tissue culture vessels. 5×10^3 cells per well are seeded in 96-well plates and infected with cell-free HCMV AD169 with an moi of 0.03. The infections are cultivated under substance pressure which corresponds to 10 times the IC50 of the substance. Preferably, 30-100 96-well plates inoculated as described are made up. […] Finally, viral stocks are produced as described above and frozen. Serial ten-fold dilution of the virus-infected cells or of the cell culture supernatant of the virus-infected cells is followed by determination of the titer on 24-well plates of confluent NHDF cells after vital staining with neutral red. Finally, the susceptibility to various substances (IC50 determination) is determined as described above.
(§3) The HCMVAD169 mutants selected as described above are grown in vitro on human embryonic prepuce fibroblasts (NHDF cells) under substance pressure (10×IC50 HCMVAD169). After infection of the NHDF cells with a multiplicity of infection (M.O.I) of 0.01, the virus-infected cells are harvested 5-10 days later, and the total DNA is isolated from these cells with the aid of established standard methods (e.g. phenol extraction and ethanol precipitation). Qiagen Sequencing Services (Qiagen, Hilden) determined, after amplification of the viral UL86 gene by PCR, the DNA sequence, which was then transcribed into protein sequence. Compared with the initial strain HCMV AD169, the differences shown in table 2 were detectable in the protein sequence of the major capsid protein (UL86) in the resistant viruses. The IC50 values [μM] of various substances on these mutants compared with the initial strain are likewise indicated. (n.d.=not measured). […] Depending on the nature of the substance, certain mutations lead to various extents of resistance.

HCMV Davis or HCMV AD169 = experiment: HCMV Xenograft Gelfoam model; type: in vivo, immunodeficient mice; conditions: oral treatment over 8 days, infectious virus particles vs placebo-treated control; approximate results
Text: 3-4-week old female immunodeficient mice (16-18 g), Fox Chase SCID or Fox Chase SCID-NOD or SCID beige, are purchased from commercial breeders (Bomholtgaard, Jackson, USA). The animals are housed under sterile conditions (including bedding and feed) in isolators.
Collagen sponges 1×1×1 cm in size (Gelfoam®; from Peasel & Lorey, order No. 407534; K. T. Chong et al., Abstracts of 39th Interscience Conference on Antimicrobial Agents and Chemotherapy, 1999, p. 439) are initially wetted with phosphate-buffered saline (PBS), the trapped air bubbles are removed by degassing, and then stored in MEM+10% FCS. 1×10^6 virus-infected NHDF cells (infection with HCMV Davis or HCMV AD169 M.O.I.=0.03) are detached 3 hours after infection and added in a drop of 20 μl of MEM, 10% FCS, to a moist sponge. 12-13 hours later, the infected sponges are incubated with 25 μl of PBS/0.1% BSA/1 mM DTT with 5 ng/μl basic fibroblast growth factor (bFGF). For the transplantation, the immunodeficient mice are anesthetized with Avertin or a ketamine/xylazine/azepromazine mixture, the fur on the back is removed using a shaver, the epidermis is opened 1-2 cm, unstressed and the moist sponges are transplanted under the dorsal skin. The surgical wound is closed with tissue glue. 6 hours after the transplantation, the mice are treated for the first time (one treatment is given on the day of the operation). On subsequent days, oral treatment with the substance is carried out three times a day (7.00 h and 14.00 h and 19.00 h), twice a day (8 h and 18 h) or once a day (14 h) over a period of 8 days. The daily dose is for example 3 or 10 or 30 or 60 or 100 mg/kg of body weight, the volume administered is 10 ml/kg of body weight. The substances are formulated in the form of a 0.5% strength Tylose suspension with 2% DMSO or a 0.5% strength Tylose suspension. […] The number of infectious virus particles after the substance treatment compared with the placebo-treated control group is determined.

[2] = test system: Human cytomegalovirus (HCMV); experiment: Anti-HCMV cytopathogenicity test; type: cell-based; conditions: for IC50: Human betaherpesvirus 5, 144 h, NHDF cells, 6 days, cytopathogenic effect, read-out: IC50, antiviral activity in vitro; for SI (selectivity index): antiviral activity in vitro
Procedure: Human cytomegalovirus (HCMV), DavisSmith (ATCC VR807) or AD169 (ATCC VR538) strain, is grown in vitro on human embryonic prepuce fibroblasts (NHDF cells). After the NHDF cells have been infected with a multiplicity of infection (M.O.I.) of 0.01, the virus-infected cells are harvested 5-10 days later and stored in the presence of minimal essential medium (MEM), 10% fetal calf serum (FCS) with 10% DMSO at −80° C. A cell-free stock is produced by removing only the cell culture supernatant and immediately freezing at −80° C. After serial ten-fold dilutions of the virus-infected cells or of the cell culture supernatant of the virus-infected cells (cell-free virus), the titer is determined on 24-well plates of confluent NHDF cells after vital staining with neutral red.
as §1

[3] = test system: HCMV AD169 clone with mutation in UL86 V601M; experiment: Susceptibility (IC50) of resistant HCMV AD169 clone V601M; type: cell-based, Human cytomegalovirus; conditions: Human betaherpesvirus 5, read-out: IC 50, V601M
Procedure: as §1, §2, §3

CC1(C)CC(=O)NN=C1c1cccc(NC(=O)Nc2ccc(F)cc2F)c1 [Example 1, N-(2,4-Difluorophenyl)-N′-[3-(4,4-dimethyl-6-oxo-1,4,5,6-tetrahydro-3-pyridazinyl)phenyl]urea]
IC50 [1]: > 125000 nM | ED50, antiviral activity in vivo (HCMV Davis or HCMV AD169): 50 mg/kg/day | IC50 [2]: 1000 nM | SI (selectivity index) [2]: 125 | IC50 [3]: 20000 nM

CC1(C)CC(=O)NN=C1c1cc(NC(=O)Nc2cc(F)ccc2F)ccc1O [Example 2, N-(2,5-Difluorophenyl)-N′-[3-(4,4-dimethyl-6-oxo-1,4,5,6-tetrahydro-3-pyridazinyl)-4-hydroxyphenyl]urea]
IC50 [1]: 6000 nM | ED50, antiviral activity in vivo (HCMV Davis or HCMV AD169): 45 mg/kg/day | IC50 [2]: 400 nM | SI (selectivity index) [2]: 325 | IC50 [3]: 3000 nM

CCCCC(=O)Nc1ccc(NC(=O)Nc2ccc(F)c(Cl)c2)cc1 [Example 4, N-[4-({[(3-Chloro-4-fluorophenyl)amino]carbonyl}amino)phenyl]pentanamide]
IC50 [1]: 1000 nM | ED50, antiviral activity in vivo (HCMV Davis or HCMV AD169): 70 mg/kg/day | IC50 [2]: 80 nM | SI (selectivity index) [2]: 750 | IC50 [3]: 500 nM

— patent publication US20070004735A1, “Method for inhibiting the replication of herpes viruses” (priority 2003, published 2007)
